Experimental data published in the NIST ThermoML archive (doi:10.1021/acs.jced.8b00192).
± gives the expanded uncertainty stated by the source.

Assays:
[1] = Molar enthalpy of transition or fusion; details: Crystal; DSC
[2] = Crystal; DTA

## CC(=O)c1cccc([N+](=O)[O-])c1 [1-(3-nitrophenyl)ethanone]
[1]
  Molar enthalpy of transition or fusion: 3.86 ± 0.21 kcal/mol
[2]
  Normal melting temperature: 76.53 ± 1.1 °C

## CC(=O)c1ccc([N+](=O)[O-])cc1 [1-(4-nitrophenyl)ethanone]
[1]
  Molar enthalpy of transition or fusion: 5.72 ± 0.225 kcal/mol
[2]
  Normal melting temperature: 81.00 ± 1.1 °C
